Series [1] concerns Mtb H37Rv. The series is described as follows: Primary screen: MIC, IC50 and IC90 under aerobic conditions. In kind it is cell-based. The following applies: Mycobacterium tuberculosis.
Series [2] in a line: physchem. The following applies: aqueous with cosolvent or surfactant or cyclodextrin, kinetic from dmso stock.
Series [3] is described as follows: in vitro. The following applies: human.
Series [4] relates to NRP Mtb H37Rv. The series is described as follows: microbe, parasite or virus in culture. The format is cell-based. Conditions: Mycobacterium tuberculosis.
Series [5] has as its system Mtb H37Rv. The series is described as follows: Secondary assay: MIC, IC50 and IC90 repeated at lower starting concentrations. In kind it is cell-based. The following applies: Mycobacterium tuberculosis; for MIC: read-out: MIC aerobic condition.
In series [6] the test system is intracellular Mtb H37Rv. The series is described as follows: microbe, parasite or virus in culture. In kind it is cell-based. Conditions: Mycobacterium tuberculosis; for IC50: THP-1, read-out: IC50 intracell; for IC90: THP-1, read-out: IC90 intracell.
For series [7], the system named is Mtb H37Rv. In words: Minimal bactericidal concentration. The following applies: Mtb H37Rv aerobic. In kind it is cell-based, Mycobacterium tuberculosis.
Series [8] relates to Mycobacterium abscessus. In words: MIC, IC50, IC90 against nontuberculous mycobacteria. The following applies: for IC50 / IC90 / MIC: Mycobacteroides abscessus. The format is cell-based.
Series [9] has as its system Mycobacterium avium. In words: MIC against nontuberculous mycobacteria, Alamar blue. Conditions: Mycobacterium avium. In kind it is cell-based. (In general: The colour change of resazurin is a common sign of viable cells or microbes.)
Series [10] in a line: In vitro microsomal stability assay. The following applies: Human, 1 μM.
The nature of series [11]: in vitro. Conditions: human. The source holds these as a separate data set.
Series [12] is described as follows: Caco-2 cell monolayer permeability assay. Conditions: human. In general terms: Caco-2 monolayers are a common model of the intestinal barrier.
The conditions of series [13]: Human plasma, equilibrium dialysis. (In general: In equilibrium dialysis only unbound substance equilibrates across the membrane.)
A short description of series [14]: HepG2 cytotoxicity. The format is cell-based. Conditions: human, HepG2 cells.

In brackets after ≈: the same amount, converted by molar mass. Read-outs that look alike come from different tables or passages of the source. Where only a bound is given, the exact number is not on record here.

Regarding `c1cc(Cn2ccnc2)nc(Cn2ccnc2)c1` [Compound 2a, 2,6-bis((1H-imidazol-1-yl)methyl)pyridine], in series [1], the IC50 (commonly the concentration that inhibits the measured activity by half) is above 200 µM, the IC90 (usually the concentration needed for an effect of 90%) is above 200 µM and the MIC is above 200 µM. For the same compound, the solubility (commonly how much of the substance goes into solution per volume) in series [2] was above 200 µM.
In the case of `O=[N+]([O-])c1cn(Cc2cccc(Cn3cnc([N+](=O)[O-])c3)n2)cn1` [Compound 2b, 2,6-bis((4-nitro-1H-imidazol-1-yl)methyl)pyridine], the IC50 in series [3] was above 50 µM; in series [4] (Low oxygen), 26 µM; in [4] (Normal oxygen), above 200 µM; in series [5] it was 93 µM; in series [1], 77 µM; in series [6], above 200 µM. The IC90 in series [4] (Low oxygen) is 91 µM; in [4] (Normal oxygen), above 200 µM; in series [5], 100 µM; in [1], 100 µM; in [6], above 200 µM. In addition, the MIC in series [4] (Low oxygen) was 200 µM (≈ 65.9 µg/mL); in [4] (Normal oxygen), above 200 µM; in [5], 101 µM (≈ 33.3 µg/mL); in series [1], 92 µM (≈ 30.3 µg/mL).
For `O=C(C[n+]1ccn(Cc2cccc(Cn3cc[n+](CC(=O)c4ccc([N+](=O)[O-])cc4)c3)n2)c1)c1ccc([N+](=O)[O-])cc1.[Br-].[Br-]` [Compound 4f, 1,1′-(pyridine-2,6-diylbis(methylene))bis(3-(2-(4-nitrophenyl)-2-oxoethyl)-1H-imidazol-3-ium) bromide], in series [7], the “mechanism of action (bacteriostatic or bactericidal)” value was “bactericidal”. Also, the “activity against M. abscessus (in words)” value in series [8] is “showed activity”. In addition, the half-maximal inhibitory concentration (IC50) in series [8] is 89 µM; in series [3], above 50 µM; in series [4] (Low oxygen) it was 25 µM; in series [4] (Normal oxygen), 49 µM; in [5], 45 µM; in series [1], 38 µM. Further, the IC50 in series [6] was found to be 26 µM. For the same compound, the IC90 turned out to be 97 µM in series [8]; 65 µM in [4] (Low oxygen); 78 µM in series [4] (Normal oxygen); 140 µM in series [5]; 71 µM in series [1]; 48 µM in series [6]. Also, the MIC in series [8] is 110 µM; in series [4] (Low oxygen), 183 µM; in series [4] (Normal oxygen), 129 µM; in series [5] it was 104 µM; in [1] it was 58 µM; in [9] it was above 200 µM.
Turning to `c1cc(Cn2cnc3ccccc32)nc(Cn2cnc3ccccc32)c1` [Compound 5, 2,6-bis((1H-benzo[d]imidazol-1-yl)methyl)pyridine], the IC50 in series [3] was above 50 µM; in series [4] (Low oxygen), above 50 µM; in series [4] (Normal oxygen), above 50 µM; in series [5], above 50 µM; in series [1] it was 43 µM; in series [6], above 200 µM. Also, the IC90 was above 50 µM in series [4] (Low oxygen); above 50 µM in series [4] (Normal oxygen); above 50 µM in series [5]; above 50 µM in [1]; above 200 µM in series [6]. Also, the MIC in [4] (Low oxygen), in series [4] (Normal oxygen), in [5] and in series [1] was above 50 µM in each case. Also, the solubility in series [2] is above 200 µM.
For `O=C(C[n+]1cn(Cc2cccc(Cn3c[n+](CC(=O)c4ccccc4)c4ccccc43)n2)c2ccccc21)c1ccccc1.[Br-].[Br-]` [Compound 6c, 1,1′-(pyridine-2,6-diylbis(methylene))bis(3-(2-oxo-2-phenylethyl)-1H-benzo[d]imidazol-3-ium) bromide], the “mechanism of action (bacteriostatic or bactericidal)” value in series [7] is “bactericidal”. In addition, the “activity against M. abscessus (in words)” value in [8] is “showed activity”. The IC50 in [8] is 120 µM; in [3] it was above 50 µM; in series [4] (Low oxygen) it was 16 µM; in series [4] (Normal oxygen) it was 17 µM; in series [5], 34 µM; in [1], 25 µM. In series [6], the IC50 was 37 µM. Further, the IC90 was 200 µM in series [8]; 130 µM in series [4] (Low oxygen); 60 µM in series [4] (Normal oxygen); 110 µM in series [5]; 60 µM in series [1]; above 50 µM in series [6]. Further, the MIC in series [8] is above 200 µM; in [4] (Low oxygen), 200 µM; in [4] (Normal oxygen) it was above 200 µM; in [5] it was 87 µM; in series [1], 56 µM; in [9], above 200 µM.
Consider `COc1ccc2c(c1)[C@]13CCCC[C@@H]1[C@H](C2)N(C)CC3` [Dextromethorphan, reference compound], for which, in series [10], the “NADPH-free CLint” value is below 12.8 µL/min/mg and the “NADPH-free T1/2” value is above 3 h.
`CC(C)NCC(O)COc1cccc2ccccc12` (centres unmarked) [Propranolol, reference compound]: in series [11], the recovery was 93%. For the same compound, in series [11] (plasma), the fraction unbound (commonly free concentration divided by total concentration) is 0.207. The Papp B→A – broadly, the apparent permeability from the basolateral to the apical side of a cell layer – in [12] (Caco-2) is 25 ×10⁻⁶ cm/s. The Papp A→B (commonly how fast a substance crosses the layer from the apical side) in series [12] (Caco-2, Mean A→B Papp, Caco-2, apical to basal) was 12.7 ×10⁻⁶ cm/s. Also, the “Mean plasma fraction bound” value in series [13] amounted to 79.3%.
For `CO[C@H]1/C=C/O[C@@]2(C)Oc3c(C)c(O)c4c(O)c(c(/C=N/N5CCN(C)CC5)c(O)c4c3C2=O)NC(=O)/C(C)=C\C=C\[C@H](C)[C@H](O)[C@@H](C)[C@@H](O)[C@@H](C)[C@H](OC(C)=O)[C@@H]1C` [Rifampicin, reference compound], the IC50 in series [8] came to 2.1 µM; in series [4] (Low oxygen), 0.0041 µM; in series [5] it was 0.004 µM. Besides, the IC90 in series [8] is 3.1 µM; in series [4] (Low oxygen), 0.0065 µM; in [5], 0.0077 µM. Besides, the MIC in series [8] is 3.3 µM (≈ 2.72 µg/mL); in series [4] (Low oxygen), 0.13 µM (≈ 0.107 µg/mL); in series [4] (Normal oxygen) it was 0.096 µM (≈ 0.079 µg/mL); in series [5], 0.0063 µM (≈ 0.00518 µg/mL); in [9], above 200 µM.
`CN[C@@H]1C[C@H]2O[C@@](C)([C@@H]1OC)n1c3ccccc3c3c4c(c5c6ccccc6n2c5c31)C(=O)NC4` [Staurosporine, reference compound] came in with an IC50 in series [3] of 0.018 µM. Also, the midpoint of inhibition in series [14], the IC50 at 72 h, lay at 0.0086 µM.
On to `CC(=O)CC(c1ccccc1)c1c(O)c2ccccc2oc1=O` (centres unmarked) [Warfarin], for which the recovery in [13] is 96.7.
